Measurements taken from patent publication US12528761B2, “Thyromimetics” (Autobahn Therapeutics, Inc., priority 2020, dated 2026).
Where two headings read alike, the source gives them in different places.

Assays:
TRα = molecular target: T1, TRα (Homo sapiens, UniProt P10827); test: TR reporter-gene assay (Gal4 DBD hybrid, luciferase), TRα; assay type: cell-based
T1 construct: expressed in transfected cells; host or cells: HEK293
T1 sequence (P10827 1-410 isoform P10827-2): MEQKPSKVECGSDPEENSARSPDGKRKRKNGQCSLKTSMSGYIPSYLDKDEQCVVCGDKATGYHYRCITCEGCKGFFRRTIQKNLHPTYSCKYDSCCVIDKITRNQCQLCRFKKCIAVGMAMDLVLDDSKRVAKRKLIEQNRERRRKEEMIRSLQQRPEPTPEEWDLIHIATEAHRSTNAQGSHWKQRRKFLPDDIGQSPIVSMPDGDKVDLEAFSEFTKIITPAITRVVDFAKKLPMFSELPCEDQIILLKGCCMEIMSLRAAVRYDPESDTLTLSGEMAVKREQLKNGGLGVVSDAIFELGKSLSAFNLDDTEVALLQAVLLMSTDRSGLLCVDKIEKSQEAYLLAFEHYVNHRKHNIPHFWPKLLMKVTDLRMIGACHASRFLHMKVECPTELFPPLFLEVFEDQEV
Protocol: (§1) Compounds were tested for thyroid-hormone receptor activity using TR reporter-gene assays. Reporter cells used in the assays express a TR-receptor hybrid (either TRα or TRβ) in which the native N-terminal DNA binding domain (DBD) has been replaced with that of the yeast Gal4 DBD. The reporter gene, firefly luciferase, is functionally linked to the Gal4 upstream activation sequence (UAS). Both cell lines were derived from human embryonic kidney (HEK293).
(§2) Step 1: A suspension of reporter cells was prepared in cell recovery medium containing 10% charcoal-stripped FBS, and dispensed into assay plates. The plates were pre-incubated for 6 hours in a cell culture incubator (37° C./5% CO2/85% humidity).
(§3) These intermediate stocks were subsequently diluted directly into compound screening medium containing 10% charcoal-stripped FBS to generate “2×-concentration” treatment media (containing 0.2, 0.4 or 0.8% DMSO).
(§4) Step 3: At the end of the pre-incubation period, culture media were discarded from the assay plates, and all wells received 100 μl of compound screening medium. 100 μl of each of the previously prepared “2×-concentration” treatment media were dispensed into duplicate assay wells, thereby achieving the desired final treatment concentrations. The final concentration of DMSO in all assay wells was 0.1, 0.2 or 0.4%. Assay plates were incubated for 24 hr in a cell culture incubator (37° C./5% CO2/85% humidity).
(§5) Step 4: At the 24 h assay endpoint, treatment media were discarded and 100 µl/well of luciferase detection reagent was added. Relative luminometer units (RLUs) were quantified from each assay well.

TRβ = molecular target: T2, TRβ (Homo sapiens, UniProt P10828); test: TR reporter-gene assay (Gal4 DBD hybrid, luciferase), TRβ; assay type: cell-based
T2 construct: expressed in transfected cells; host or cells: HEK293
T2 sequence (P10828 217-461 limits assumed): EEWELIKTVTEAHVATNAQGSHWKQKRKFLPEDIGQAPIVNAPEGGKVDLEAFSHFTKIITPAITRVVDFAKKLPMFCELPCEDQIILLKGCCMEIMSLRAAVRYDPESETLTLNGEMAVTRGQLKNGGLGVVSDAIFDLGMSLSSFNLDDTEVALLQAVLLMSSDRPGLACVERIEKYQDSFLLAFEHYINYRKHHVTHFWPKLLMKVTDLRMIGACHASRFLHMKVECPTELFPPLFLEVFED
Protocol: as §1, §2, §3, §4, §5

[1] = HEK293-derived reporter cells, 24 hr treatment, read-out: TRα EC50
[2] = HEK293-derived reporter cells, 24 hr treatment, read-out: TRβ EC50

Row | Compound | EC50 (TRα; [1]) [nM] | EC50 (TRβ; [2]) [nM] | T3-SI (selectivity index, EC50 (TRα)/EC50 (TRβ)) (TRβ; class symbols) | EC50 (TRα) [nM] | EC50 (TRβ) [nM] | T3-SI (selectivity index, EC50 (TRα)/EC50 (TRβ)) (TRβ; given as a number)
1 | Cc1cc(CNCC(=O)O)cc(Cl)c1Cc1ccc(O)c(C(C)C)c1 [Compound 251, (3-chloro-4-(4-hydroxy-3-isopropylbenzyl)-5-methylbenzyl)glycine] | 100 to 1000 | > 1000 | + (T3-SI ≤ 3×) | – | – | –
2 | CC(C)c1c(O)ccc(Cc2c(Cl)cc(CC(N)C(=O)O)cc2Cl)c1F (stereo not drawn) [Compound 207, 2-amino-3-(3,5-dichloro-4-(2-fluoro-4-hydroxy-3-isopropylbenzyl)phenyl)propanoic acid] | > 1000 | 100 to 1000 | + (T3-SI ≤ 3×) | – | – | –
3 | Cc1cc(NC(=O)CC(=O)O)cc(C)c1Cc1ccc(O)c(C(C)c2ccc(F)cc2)c1 (stereo not drawn) [Compound 4, 3-((4-(3-(1-(4-fluorophenyl)ethyl)-4-hydroxybenzyl)-3,5-dimethylphenyl)amino)-3-oxopropanoic acid] | 100 to 1000 | 10 to 100 | ++ (3× < T3-SI ≤ 30×) | – | – | –
4 | CONC(=O)CCc1cc(Cl)c(Cc2ccc(O)c(C(C)C)c2F)c(Cl)c1 [Compound 106, 3-(3,5-dichloro-4-(2-fluoro-4-hydroxy-3-isopropylbenzyl)phenyl)-N-methoxypropanamide] | 10 to 100 | 10 to 100 | ++ (3× < T3-SI ≤ 30×) | – | – | –
5 | Cc1cc(CS(=O)(=O)CC(=O)O)cc(Cl)c1Cc1ccc(O)c(C(C)C)c1 [Compound 245, 2-((3-chloro-4-(4-hydroxy-3-isopropylbenzyl)-5-methylbenzyl)sulfonyl)acetic acid] | > 1000 | > 1000 | ++ (3× < T3-SI ≤ 30×) | – | – | –
6 | C[Si](C)(C)c1c(O)ccc(Cc2c(Cl)cc(CC(=O)O)c(F)c2Cl)c1F [Compound 151, 2-(3,5-dichloro-2-fluoro-4-(2-fluoro-4-hydroxy-3-(trimethylsilyl)benzyl)phenyl)acetic acid] | – | – | ++ (3× < T3-SI ≤ 30×) | 100 to 1000 | 100 to 1000 | –
7 | Cc1cc(C[S+]([O-])CC(=O)O)cc(Cl)c1Cc1ccc(O)c(C(C)C)c1 (stereo not drawn) [Compound 246, 2-((3-chloro-4-(4-hydroxy-3-isopropylbenzyl)-5-methylbenzyl)sulfinyl)acetic acid] | > 1000 | > 1000 | ++ (3× < T3-SI ≤ 30×) | – | – | –
8 | CC(C)c1c(O)ccc(Cc2c(Cl)cc(NC(=O)C(=O)O)cc2Cl)c1F [Compound 213, 2-((3,5-dichloro-4-(2-fluoro-4-hydroxy-3-isopropylbenzyl)phenyl)amino)-2-oxoacetic acid] | 100 to 1000 | 100 to 1000 | – | – | – | 7.15
9 | CC(c1ccc(F)cc1)c1c(O)ccc(Cc2c(Cl)cc(NC(=O)CC(=O)O)cc2Cl)c1F (stereo not drawn) [Compound 56, 3-((3,5-dichloro-4-(2-fluoro-3-(1-(4-fluorophenyl)ethyl)-4-hydroxybenzyl)phenyl)amino)-3-oxopropanoic acid] | 100 to 1000 | 10 to 100 | ++ (3× < T3-SI ≤ 30×) | – | – | –
10 | CC(C)c1c(O)ccc(Cc2c(Cl)cc(CC3NC(=O)NC3=O)cc2Cl)c1F (stereo not drawn) [Compound 206, 5-(3,5-dichloro-4-(2-fluoro-4-hydroxy-3-isopropylbenzyl)benzyl)imidazolidine-2,4-dione] | > 1000 | > 1000 | +++ (T3-SI > 30×) | – | – | –
11 | CC(c1ccc(F)cc1)c1c(O)ccc(Cc2c(Cl)cc(NCC(=O)O)cc2Cl)c1F (stereo not drawn) [Compound 50, (3,5-dichloro-4-(2-fluoro-3-(1-(4-fluorophenyl)ethyl)-4-hydroxybenzyl)phenyl) glycine] | 10 to 100 | < 10 | ++ (3× < T3-SI ≤ 30×) | – | – | –
12 | Cc1cc(CCC(=O)O)cc(Cl)c1Cc1ccc(O)c(C(C)C)c1F [Compound 249, 3-(3-chloro-4-(2-fluoro-4-hydroxy-3-isopropylbenzyl)-5-methylphenyl)propanoic acid] | 10 to 100 | 10 to 100 | ++ (3× < T3-SI ≤ 30×) | – | – | –
13 | CC(C)c1cc(Cc2c(Cl)cc(CC(N)C(=O)O)cc2Cl)ccc1O (stereo not drawn) [Compound 143, 2-amino-3-(3,5-dichloro-4-(4-hydroxy-3-isopropylbenzyl)phenyl)propanoic acid] | 10 to 100 | 10 to 100 | + (T3-SI ≤ 3×) | – | – | –
14 | CC(C)c1cc(Cc2c(Cl)cc(/C=C/CC(=O)O)cc2Cl)ccc1O [Compound 15, (E)-4-(3,5-dichloro-4-(4-hydroxy-3-isopropylbenzyl)phenyl)but-3-enoic acid] | 10 to 100 | 10 to 100 | ++ (3× < T3-SI ≤ 30×) | – | – | –
15 | CC(C)c1cc(Cc2c(Cl)cc([S+]([O-])CC(=O)O)cc2Cl)ccc1O (stereo not drawn) [Compound 92, 2-((3,5-dichloro-4-(4-hydroxy-3-isopropylbenzyl)phenyl)sulfinyl)acetic acid] | > 1000 | > 1000 | +++ (T3-SI > 30×) | – | – | –
16 | C/C(=C\c1cc(Cl)c(Cc2ccc(O)c(C(C)C)c2F)c(Cl)c1)C(=O)O [Compound 205, (E)-3-(3,5-dichloro-4-(2-fluoro-4-hydroxy-3-isopropylbenzyl)phenyl)-2-methylacrylic acid] | < 10 | < 10 | ++ (3× < T3-SI ≤ 30×) | – | – | –
17 | CC(C)c1cc(Cc2c(Cl)cc(NCCC(=O)O)cc2Cl)ccc1O [Compound 103, 3-((3,5-dichloro-4-(4-hydroxy-3-isopropylbenzyl)phenyl)amino)propanoic acid] | 10 to 100 | 10 to 100 | ++ (3× < T3-SI ≤ 30×) | – | – | –
18 | C/C(=C\c1cc(Cl)c(Cc2ccc(O)c(C(C)C)c2)c(Cl)c1)C(=O)O [Compound 102, (E)-3-(3,5-dichloro-4-(4-hydroxy-3-isopropylbenzyl)phenyl)-2-methylacrylic acid] | 100 to 1000 | 100 to 1000 | ++ (3× < T3-SI ≤ 30×) | – | – | –
19 | Cc1cc(CC(=O)O)cc(C)c1Cc1ccc(O)c(C(C)c2ccc(F)cc2)c1 (stereo not drawn) [Compound 2, 2-(4-(3-(1-(4-fluorophenyl)ethyl)-4-hydroxybenzyl)-3,5-dimethylphenyl)acetic acid] | 100 to 1000 | 10 to 100 | ++ (3× < T3-SI ≤ 30×) | – | – | –
20 | CC(C)c1cc(Cc2c(Cl)cc(CC(=O)O)cc2Cl)ccc1O [Compound 6, 2-(3,5-dichloro-4-(4-hydroxy-3-isopropylbenzyl)phenyl)acetic acid] | 100 to 1000 | 100 to 1000 | ++ (3× < T3-SI ≤ 30×) | – | – | –
21 | CC(C)c1c(O)ccc(Cc2c(Cl)cc(CNCC(=O)O)c(F)c2Cl)c1F [Compound 153, (3,5-dichloro-2-fluoro-4-(2-fluoro-4-hydroxy-3-isopropylbenzyl)benzyl)glycine] | 10 to 100 | 10 to 100 | ++ (3× < T3-SI ≤ 30×) | – | – | –
22 | CC(C)c1c(O)ccc(Cc2c(Cl)cc(OCCCCC(=O)O)cc2Cl)c1F [Compound 54, 5-(3,5-dichloro-4-(2-fluoro-4-hydroxy-3-isopropylbenzyl)phenoxy)pentanoic acid] | 10 to 100 | 10 to 100 | + (T3-SI ≤ 3×) | – | – | –
23 | Cc1c(F)c(SCC(=O)O)cc(Cl)c1Cc1ccc(O)c(C(C)C)c1 [Compound 227, 2-((5-chloro-2-fluoro-4-(4-hydroxy-3-isopropylbenzyl)-3-methylphenyl)thio)acetic acid] | 100 to 1000 | 100 to 1000 | ++ (3× < T3-SI ≤ 30×) | – | – | –
24 | CC(C)c1cc(Cc2c(Cl)cc(OC(F)(F)C(=O)O)cc2Cl)ccc1O [Compound 82, 2-(3,5-dichloro-4-(4-hydroxy-3-isopropylbenzyl)phenoxy)-2,2-difluoroacetic acid] | > 1000 | 100 to 1000 | ++ (3× < T3-SI ≤ 30×) | – | – | –
